Experimental data taken from PubChem BioAssay AID2067 (The Scripps Research Institute Molecular Screening Center, 2009).
pIC50, pKi: −log10 of the molar value.

Biological target: Collagenase 3 (Homo sapiens) (UniProt P45452)
Assay: MMP13 inhibition and MMP selectivity, late-stage follow-up, selectivity assay for MMP13 inhibitor project, biochemical, probe development, late stage results (AID 2067)
Conditions: recombinant MMP panel, fTHP FRET substrate cleavage, MMP-13; for pKi: Ki assay, MMP-13 Ki, Lineweaver-Burk

**Q.** O=c1[nH]c(SCc2ccc(Cl)cc2)nc2c1CCC2 was tested. Which pIC50 did it give?
**A.** 5.47

**Q.** What about the pKi of the same compound?
**A.** 5.42

**Q.** With Cc1ccc(CSc2nc3c(c(=O)[nH]2)CCC3)cc1 as the compound, how does the pIC50 read?
**A.** 5.61

**Q.** And the pKi?
**A.** 6.08

**Q.** What does the source list for COC(=O)c1ccc(CSc2nc3c(c(=O)[nH]2)CCC3)cc1?
**A.** pIC50: 5.55; pKi: 5.82
